# Measured values from PMC1764757 (BMC Cancer, 2006).
# How the values were obtained:
# [1] = human, in vivo, iv, 600 mg/m^2, 1 h
# Procedure: (§1) Blood samples were taken following drug administration and the plasma extracted immediately and stored. Blood samples for determination of Cilengitide were collected at the following time points: day 1 immediately before Cilengitide infusion and after 1 h (end of infusion); day 8 immediately before Cilengitide infusion and after 1 h (end of infusion) and 0.5 h, 1 h, 2 h, 3 h, 4 h, 7 h, and 11 h after end of Cilengitide infusion. Blood samples for gemcitabine analysis were collected in both treatment arms on day 1 and day 8 at the following time points: 0 h (immediately before start of infusion of gemcitabine), 0.5 h (at the end of infusion of gemcitabine) and 0.5 h, 1.5 h, 2.5 h, and 3.5 h after end of gemcitabine infusion.
# (§2) Analysis was carried out at a single laboratory using high-performance liquid chromatography-tandem mass spectrometry. Calculation of pharmacokinetic parameters was performed according to non-compartmental standard methods. Pharmacokinetic analyses included maximum plasma concentration (Cmax), time to maximum concentration (tmax), area under the curve from time zero to the last sampling time (AUC0-t), area under the curve from time zero to infinity (AUC0-∝), apparent elimination rate constant (λz), apparent terminal elimination half-life associated with the negative terminal slope (t1/2), total body clearance of drug from plasma (CL) and the volume of distribution at steady state (Vss). The lower limits of quantification for Cilengitide and gemcitabine in plasma were 1 ng/mL and 50 ng/mL, respectively. For the plasma quality control samples of Cilengitide the interbatch coefficient of variation (CV) was 3.4% to 9.2% and the interbatch accuracy was 97% to 104%. For the plasma quality control samples of gemcitabine, the interbatch CV was 5.6% to 9.4% and the interbatch accuracy was 93.5% to 104%.
# [2] = system: patients with advanced solid tumors; details: in vivo; cited from earlier work
# [3] = ancillary pharmacokinetic study, plasma, HPLC-MS/MS; details: for Tmax: human, iv
# Procedure: as §1, §2
# clinical = details: human, in vivo, iv
# Procedure: as §1, §2
# [4] = system: patients with advanced pancreatic cancer; details: cited from earlier work
# [5] = system: patients with advanced unresectable pancreatic cancer; test: randomized phase II trial: quality of life (EORTC QLQ-C30); format: in vivo, human; details: QLQ-C30, change from baseline
# Procedure: Quality of life (QoL) was assessed using the European Organization for Research and Treatment of Cancer (EORTC) QoL core questionnaire (QLQ-C30, Version 3.0) in conjunction with the EORTC Pancreatic Module ([…] is a self-administered 30-item questionnaire and incorporates 5 functional scales, 3 symptom scales and a global health/QoL scale. EORTC-PAN26 is a 26-item questionnaire addressing pancreas cancer specific symptoms and the side effects from conventional therapy. Assessments were made at weeks 1, 9, 17, 25 and at the end of treatment. QoL data were analyzed descriptively due to the small number of patients enrolled in the study.
# [6] = system: patients with advanced unresectable pancreatic cancer; test: randomized phase II trial: survival, PFS and tumor response; format: in vivo, human
# Source text: Patients with advanced unresectable pancreatic cancer were enrolled. Eligibility criteria included age ≥ 18 years, diagnosed (histologically or cytologically) with or without metastases, at least one bidimensionally measurable lesion, a Karnofsky performance score of ≥ 70%, a life expectancy of at least 12 weeks, and written informed consent. The main exclusion criteria were prior chemotherapy and/or major surgery related to pancreatic cancer before study entry with the exception of palliative surgery, brain metastases, a pancreatic tumor of neuroendocrine origin, second primary malignancies, inadequate liver and renal functions, inadequate bone marrow reserve, a history of cerebrovascular accident or repeated transient ischemic attacks and cardiac or cardiovascular abnormality.
# This was a multi-national, open-label, controlled, randomized, parallel-group, phase II pilot study, conducted in 20 centers in 7 countries (Austria, Belgium, France, Germany, Spain, Switzerland, and the United Kingdom). Eligible patients were randomized to receive either Cilengitide and gemcitabine or gemcitabine alone. The Pocock minimization method [23] was applied for randomization using factors for center and for locally advanced or metastatic disease following the definition according to the tumor-node-metastasis (TNM) classification and histopathological grading system of the International Union Against Cancer. Cilengitide (600 mg/m^2) was administered twice weekly as a 1 hour intravenous (IV) infusion for 4 consecutive weeks (1 cycle). Gemcitabine (1000 mg/m^2) was administered as a weekly 30-minute IV infusion once weekly for 3 weeks followed by 1 week of rest (1 cycle). In the drug combination group, on the days on which both drugs were given, Cilengitide was given immediately prior to gemcitabine. The planned treatment period was 24 weeks (6 cycles), but patients responding to either regimen could continue treatment up to a maximum of 48 weeks.
# Overall survival was defined as the time from the start of study drug administration to death. PFS was defined as the time interval between the date of randomization and the date of disease progression or death whichever came first. If neither was observed the patient was censored at the date of the last follow-up examination. A computed tomography or magnetic resonance imaging scan of target lesions was performed at baseline, weeks 9 and 17, and at the end of treatment to assess tumor size and treatment response. Unscheduled scans were conducted to confirm disease progression. Tumor response was assessed according to the amended World Health Organization (WHO) criteria for response based on the size of target lesions.
# The sample size of the trial was determined by clinical feasibility. No inferential statistical comparison of the two treatment arms was planned. The aim was to obtain information on safety and feasibility as well as trends in efficacy by determination of overall survival as primary and progression-free survival (PFS), response rate, quality of life (QoL), effects on biological markers of disease (CA 19.9) and angiogenesis (vascular endothelial growth factor and basic fibroblast growth factor) and safety as secondary endpoints. Confidence intervals were presented at the 95%-confidence level. The data of this phase II pilot- and feasibility study, are presented in a descriptive manner. The primary analysis of survival (time to death from any cause) was conducted using the intention-to-treat (ITT) population. An additional supportive analysis using the Per Protocol (PP) population was conducted. The secondary objectives were to determine PFS, response rates, safety and tolerability, QoL, biological response, and pharmacokinetics.
# [7] = system: patients with advanced unresectable pancreatic cancer; test: randomized phase II trial: safety, adverse events (NCI-CTC); format: in vivo, human
# Source text: This was a multi-national, open-label, controlled, randomized, parallel-group, phase II pilot study, conducted in 20 centers in 7 countries (Austria, Belgium, France, Germany, Spain, Switzerland, and the United Kingdom). Eligible patients were randomized to receive either Cilengitide and gemcitabine or gemcitabine alone. The Pocock minimization method was applied for randomization using factors for center and for locally advanced or metastatic disease following the definition according to the tumor-node-metastasis (TNM) classification and histopathological grading system of the International Union Against Cancer. Cilengitide (600 mg/m^2) was administered twice weekly as a 1 hour intravenous (IV) infusion for 4 consecutive weeks (1 cycle). Gemcitabine (1000 mg/m^2) was administered as a weekly 30-minute IV infusion once weekly for 3 weeks followed by 1 week of rest (1 cycle). In the drug combination group, on the days on which both drugs were given, Cilengitide was given immediately prior to gemcitabine. The planned treatment period was 24 weeks (6 cycles), but patients responding to either regimen could continue treatment up to a maximum of 48 weeks. […] Any change was based on patient hematological and/or non-hematological parameters on the intended day of treatment as well as the maximum drug-induced toxicity grade observed between dosing. The before treatment and 4-weekly evaluations included a physical examination and laboratory investigations (blood counts, biochemical profile, urinalysis). Assessments were also made of Karnofsky performance status and vital signs. Before the start of the study, at the end of the study and when clinically indicated during the study chest X-rays and 12-lead electrocardiograms were performed. Adverse events were monitored and evaluated for frequency, duration, severity (mild, moderate, severe, life-threatening) and possible relationship to study medication. Toxicity was assessed according to NCI-CTC Version 2. All adverse events whether reported by a patient or observed by an investigator or study nurse were documented, regardless of whether they were considered to be drug-related, together with any medical intervention.
# [8] = Cilengitide 600 mg/m^2 1 h IV infusion with gemcitabine, plasma, n 10
# [9] = in combination with gemcitabine
# [10] = WHO criteria, ITT, listed as gemcitabine alone
# [11] = all adverse events during the treatment period
# [12] = onset during the treatment phase
# [13] = possibly related to treatment, listed as gemcitabine alone
compound,measurement,setting,value
"CC(C)[C@H]1C(=O)N[C@@H](CCCN=C(N)N)C(=O)NCC(=O)N[C@@H](CC(=O)O)C(=O)N[C@H](Cc2ccccc2)C(=O)N1C [Cilengitide, Cyclo-l-Arg-l-Asp-d-Phe-N (Me) l-Val]",mean concentration at the end of infusion,[1],62.182 ± 12.345 µg/mL
same,dose limiting toxicity,[2],no dose limiting toxicity was recorded
same,"CL, Geomean",[3]; [8],54.2 mL/min/m^2
same,"Vss, Geomean",[3]; [8],12100 mL/m^2
same,Tmax,[3]; plasma,1 h
same,level at 1 h,"clinical; 600 mg/m^2, mean concentration at the end of infusion",75.4 ± 31.5 µg/mL
same,half-life,"clinical; t1/2, Geomean",~3 h
"bevacizumab: anti-VEGF-agent, given in combination with gemcitabine",median overall survival time,[4]; [9],"8,8 months"
same,response rate,[4]; [9],21%
"Nc1ccn([C@@H]2O[C@H](CO)[C@@H](O)C2(F)F)c(=O)n1 [Gemcitabine, gemcitabine]",patients reporting an improved global health status,[5]; week 9,50%
same,patients reporting an improved global health status,[5]; week 17,47%
same,1-year survival (95% CI),[6]; ITT population,0.24 (0.11–0.37)
same,Median PFS (95% CI),[6]; ITT population,115 (62–178) days
same,Median survival (95% CI),[6]; ITT population,234 (137–290) days
same,Number of deaths,[6]; ITT population,37
same,median PFS time,[6]; ITT population,3.8 months
same,median overall survival,[6]; ITT population,7.7 months
same,"Complete response, % of patients","[6]; WHO criteria, ITT",2%
same,"Complete response, No. patients","[6]; WHO criteria, ITT",1
same,"Partial response, % of patients","[6]; WHO criteria, ITT",12%
same,"Partial response, No. patients","[6]; WHO criteria, ITT",5
same,"Progressive disease, % of patients","[6]; WHO criteria, ITT",23%
same,"Progressive disease, No. patients","[6]; WHO criteria, ITT",10
same,"Response rate, % of patients","[6]; WHO criteria, ITT",14%
same,"Response rate, No. patients","[6]; WHO criteria, ITT",6
same,"Stable disease, % of patients","[6]; WHO criteria, ITT",42%
same,"Stable disease, No. patients","[6]; WHO criteria, ITT",18
same,"Tumor growth control rate, % of patients","[6]; WHO criteria, ITT",56%
same,"Tumor growth control, No. patients","[6]; WHO criteria, ITT",24
same,"Response rate, % of patients",[6]; [10],14%
same,"Tumor growth control rate, % of patients",[6]; [10],56%
same,median survival time,[4]; gemcitabine alone,5.7 months
same,median maximum plasma concentration,"[3]; gemcitabine alone group, Week 1, n = 5",10600 ng/mL
same,median maximum plasma concentration,"[3]; gemcitabine alone group, Week 2, n = 5",6060 ng/mL
same,median maximum plasma concentration,"[3]; gemcitabine in the Cilengitide and gemcitabine group, Week 1, n = 12",6960 ng/mL
same,median maximum plasma concentration,"[3]; gemcitabine in the Cilengitide and gemcitabine group, Week 2, n = 11",7490 ng/mL
same,Tmax,"[3]; plasma, 1000 mg/m^2",0.5 h
same,"Condition reduced, number of events","[7]; SAE, Grade 3, relationship not assessable, considered possibly related",1
same,Gamma-glutamyl transferase elevations (% of patients),[7]; [11],29%
same,Nausea (% of patients),[7]; [11],50%
same,Shivering (% of patients),[7]; [11],7%
same,ascites (% of patients),[7]; [11],26%
same,cholestasis (% of patients),[7]; [11],26%
same,dyspepsia (% of patients),[7]; [11],29%
same,dyspnea (% of patients),[7]; [11],14%
same,fever (% of patients),[7]; [11],24%
same,jaundice (% of patients),[7]; [11],19%
same,urinary tract infection (% of patients),[7]; [11],21%
same,number of possibly related serious adverse events,[7]; in vivo,8
same,"patients with possibly related adverse events, %",[7]; in vivo,76%
same,"patients with possibly related adverse events, number",[7]; in vivo,32
same,total number of possibly related adverse events,[7]; in vivo,278
same,"AE, Grade 1/2, No. of events",[7]; [12],617
same,"AE, Grade 1/2, Pts (%)",[7]; [12],17%
same,"AE, Grade 3/4, No. of events",[7]; [12],138
same,"AE, Grade 3/4, Pts (%)",[7]; [12],83%
same,"AE, all grades, No. of events",[7]; [12],755
same,"AE, all grades, Pts (%)",[7]; [12],100%
same,"SAE, all, No. of events",[7]; [12],64
same,"SAE, all, Pts (%)",[7]; [12],71%
same,"SAE, all, Pts (%)","[7]; onset during the treatment phase, listed as gemcitabine alone",71%
same,"Epistaxis, number of events","[7]; possibly related SAE, Grade 2",1
same,"Exanthema, number of events","[7]; possibly related SAE, Grade 2",1
same,"Pneumonia, number of events","[7]; possibly related SAE, Grade 2",1
same,"Anorexia, number of events","[7]; possibly related SAE, Grade 3",1
same,"Depression, number of events","[7]; possibly related SAE, Grade 3",1
same,"Dyspnea, number of events","[7]; possibly related SAE, Grade 3",2
same,Anemia (% of patients),[7]; possibly related to treatment,26%
same,Anorexia (% of patients),[7]; possibly related to treatment,14%
same,Asthenia (% of patients),[7]; possibly related to treatment,10%
same,Edema (% of patients),[7]; possibly related to treatment,5%
same,Fatigue (% of patients),[7]; possibly related to treatment,19%
same,Hair changes (% of patients),[7]; possibly related to treatment,12%
same,Headache (% of patients),[7]; possibly related to treatment,0%
same,Leukopenia (% of patients),[7]; possibly related to treatment,26%
same,Nausea (% of patients),[7]; possibly related to treatment,38%
same,Peripheral edema (% of patients),[7]; possibly related to treatment,5%
same,Shivering (% of patients),[7]; possibly related to treatment,2%
same,Sweating increased (% of patients),[7]; possibly related to treatment,2%
same,Thrombocytopenia (% of patients),[7]; possibly related to treatment,33%
same,Vomiting (% of patients),[7]; possibly related to treatment,26%
same,dyspepsia (% of patients),[7]; possibly related to treatment,7%
same,fever (% of patients),[7]; possibly related to treatment,10%
same,Leukopenia (% of patients),[7]; [13],26%
same,Shivering (% of patients),[7]; [13],2%
